Test results published in publication PMC13441234 (2025).

How the values were obtained:
[1] = test system: Phenylalanine aptamer (on 8 nm SiO2 blocking layer) (DNA, aptamer) CGACCGCGTTTCCCAAGAAAGCAAGTATTGGTTGGTCG; test: square wave voltammetry, electrochemical aptamer sensor; conditions: 1x PBS, room temperature, 300 Hz, 50 mV amplitude, apparent, immobilised aptamer, n = 3 electrodes
[2] = test system: Phenylalanine aptamer (on gold with alkylthiolate/MCH blocking layer) (DNA, aptamer) CGACCGCGTTTCCCAAGAAAGCAAGTATTGGTTGGTCG; test: as above; conditions: 1x PBS (cation concentrations not given); apparent; 300 Hz; immobilised aptamer; whether own (Figure A2) or literature value not explicit

binding constant [1]: 12 µM | binding constant [2]: 400 µM
SMILES: N[C@@H](Cc1ccccc1)C(=O)O
